Measurements as given in patent publication US9873904B2, “Detection of acid-producing bacteria” (3M INNOVATIVE PROPERTIES COMPANY, priority 2009, dated 2018).
Counter-ions that a name gives are not always drawn. Like-named read-outs stand apart in the source and are kept apart here.

How the values were obtained:
Leuconostoc = format: cell-based, Leuconostoc mesenteroides; settings: 30 C
Excerpt: (§1) DIFCO MRS broth was obtained from BD-Diagnostic Systems (Sparks, Md.).
(§2) Four strains of lactic acid-producing bacteria were isolated from processed meats. Two of the cultures were identified as Leuconostoc mesenteroides and Weissella viridescens, Lactococcus lactis subspecies lactis and Streptococcus oralis.
(§3) Bromcresol purple (BCP) pH indicators was obtained from Eastman Kodak (Rochester, N.Y.). Chlorophenol red (CPR) (CAS NO. 4430-20-0) was obtained from Sigma-Aldrich (St. Louis, Mo.). The pH indicators were individually added to MRS broth to obtainfinal concentrations of BCP or CPR of 0.5 mM. After dissolving the pH indicator, the solutions were filter-sterilized.
(§4) Bacterial cultures were prepared by inoculating pure cultures into tryptic soy broth or MRS broth. The inoculated broth was incubated overnight at 25° C. The overnight cultures were diluted in the MRS broth (containing bromcresol purple) to obtain a suspension of approximately 10-100 colony-forming units (CFU) per milliliter. […] Inoculated plates were incubated at temperatures at 25°, 30° and 32° C., respectively. The plates were visually inspected for signs of bacterial growth.
(§5) A concentrated solution of sterile chlorophenol red was added to the MRS diluent as described in Example 2. A concentrated solution of sterile dipotassium phosphate (pH 7.0+/−0.2) was added to the MRS diluent to provide an additional 28 mM phosphate buffer in the diluent. Lactic acid bacterial cultures were prepared and diluted into the MRS/chlorophenol red solution as described in Example 1 with the exception that S. oralis was not tested in this experiment. […] The plates were incubated at 30° C. and the plates were visually inspected for signs of bacterial growth.
as §5, with “provide and” for “provide an”

[1] = system: L. lactis subspecies lactis; format: cell-based, Lactococcus lactis subspecies lactis; settings: 30 C
Excerpt: as §1, §2, §3, §4, §5
as §5, with “provide and” for “provide an”

Weissella = format: cell-based, Weissella viridescens; settings: 30 C
Excerpt: as §1, §2, §3, §4, §5
as §5, with “provide and” for “provide an”

S. oralis = format: cell-based, Streptococcus oralis; settings: Example 1; indicator 0.02 g/l or 0.04 g/l; buffer addition None; 25 C, 30 C; 40-72 hr
Excerpt: as §1, §2, §3, §4
A concentrated solution of sterile chlorophenol red was added to the MRS diluent as described in Example 2. […]

[2] = system: L. lactis subspecies lactis; assay: Colony appearance on thin film culture devices containing pH indicators (MRS/Letheen diluent); format: cell-based, Lactococcus lactis subspecies lactis; settings: indicator 0.5 mM
Excerpt: (§6) The aliquot were separately filter-sterilized.

L. mesenteroides = assay: as above; format: cell-based, Leuconostoc mesenteroides; settings: indicator 0.5 mM
Excerpt: as §6

Saccharomyces cerevisiae [3] = assay: Detection of lactic acid bacteria with Nystatin on Plate I; format: cell-based; settings: 500 U/mL Nystatin, 28 degrees Celsius, 48-144 hr, 99.9% CO2
Description: (§7) Overnight cultures of Lactobacillus brevis, Pediococcus damnosus and 5 strains of Saccharomyces cerevisiae were grown in MRS broth (bacteria cultures) or yeast peptone dextrose (YPD) broth (yeast cultures). These cultures were serially diluted, yielding suspensions that contained approximately 100 cfu/mL of the organisms. A second series of suspensions were prepared and 500 U/mL Nystatin (CAS No. 1400-61-9 from Sigma) were added to the suspensions. A stock solution was prepared by adding Nystatin solids to 100% ethanol to make a solution of 25,000 U/mL which was then added to the bacteria/yeast suspensions to obtain the desired Nystatin concentration. One milliliter of each of the different solutions was then inoculated onto Plate I. The inoculated plates were incubated at 28 degrees Celsius for 48-144 hr in a 99.9% CO2 incubator.

Lactobacillus brevis [4] = assay: as above; format: cell-based; settings: 500 U/mL Nystatin, 28 degrees Celsius, 48-144 hr, 99.9% CO2
Description: as §7

Pediococcus damnosus = assay: as above; format: cell-based; settings: 500 U/mL Nystatin, 28 degrees Celsius, 48-144 hr, 99.9% CO2
Description: as §7

Saccharomyces cerevisiae [5] = assay: Colony growth with cycloheximide on Plate I; format: cell-based
Description: (§8) Overnight cultures of Lactobacillus brevis in MRS broth and Saccharomyces cerevisiae in yeast peptone dextrose (YPD) broth were prepared as described in Example 7. The cultures were serially diluted to obtain suspensions, each containing approximately 100 cfu/ml of the individual species (either L. brevis or S. cerevisiae). A third suspension was prepared containing 100 cfu/mL total of both species. […] The cycloheximide was added by using a stock solution of cycloheximide prepared by dissolving 100 ppm of cycloheximide to Butterfield's Buffer and sterile filtering the solution through a 0.2 μm filter. The stock solution was added to the diluent buffer.
(§9) One milliliter of each of the bacterial suspensions was used to inoculate Plate I. The plates were incubated at 28° C. for 48 hr in an incubator having an environment of 99.9% carbon dioxide. Growth indicates the presence of colonies.

Lactobacillus brevis [6] = assay: Colony growth with cycloheximide on Plate I; format: cell-based; settings: with cycloheximide 100 ppm, 28° C., 48 hr, 99.9% carbon dioxide
Description: Overnight cultures of Lactobacillus brevis in MRS broth and Saccharomyces cerevisiae in yeast peptone dextrose (YPD) broth were prepared as described in Example 7. The cultures were serially diluted to obtain suspensions, each containing approximately 100 cfu/ml of the individual species (either L. brevis or S. cerevisiae). A third suspension was prepared containing 100 cfu/mL total of both species. A second set of 3 suspensions was prepared in the same manner (only L. brevis, only S. cerevisiae, and both organisms) except that each final solution also contained 100 ppm […] cycloheximide ((CAS No. 66-81-9), sold under the tradename Actidione and obtained from Sigma (Fluka). The cycloheximide was added by using a stock solution of cycloheximide prepared by dissolving 100 ppm of cycloheximide to Butterfield's Buffer and sterile filtering the solution through a 0.2 μm filter. The stock solution was added to the diluent buffer.
as §9

[7] = system: Lactobacillus brevis and Saccharomyces; assay: Colony growth with cycloheximide on Plate I; format: cell-based, Lactobacillus brevis and Saccharomyces cerevisiae
Description: as §8, §9

[8] = Example 1, indicator 0.02 g/l or 0.04 g/l, buffer addition None, 25 C, 40-72 hr
[9] = Example 1, indicator 0.02 g/l or 0.04 g/l, buffer addition None, 25 C, 18-24 hr
[10] = Example 2, indicator 0.21 g/l, buffer addition None, 18-24 hr
[11] = Example 2, indicator 0.21 g/l, buffer addition None, 40-72 hr
[12] = Example 3, indicator 0.21 g/l, buffer addition 28 mM, 18-24 hr
[13] = Example 3, indicator 0.21 g/l, buffer addition 28 mM, 40-72 hr
[14] = with cycloheximide 100 ppm, 28° C., 48 hr, 99.9% carbon dioxide

`Cc1cc(C2(c3cc(C)c(O)c(Br)c3)OS(=O)(=O)c3ccccc32)cc(Br)c1O` [Bromcresol Purple, Bromcresol purple] was tested, and the Observations (Leuconostoc; [8]) was “Leuconostoc: Acid zones. No visible colonies or gas bubbles”, the Observations [1, 9] was “L. lactis subspecies lactis: Colonies with acid zones. No gas bubbles” and the Observations [1, 8] was “L. lactis subspecies lactis: Colonies with acid zones. No gas bubbles”. The Observations (Weissella; [9]) was “Weissella: Acid zones without visible colonies. No gas bubbles”, the Observations (Weissella; [8]) was “Weissella: Acid zones and gas bubbles. Pale colonies” and the Observations (S. oralis) was “S. oralis: Acid zones. No visible colonies or gas bubbles”.

In the case of `Cc1c(C2(c3cc(Br)c(O)c(Br)c3C)OS(=O)(=O)c3ccccc32)cc(Br)c(O)c1Br` [Bromocresol Green, Bromocresol Green sodium salt], the “24-hour Results” value ([2]; 32° C.) is reported as “Pale yellow zones”, the “24-hour Results” value (L. mesenteroides; 25° C.) is reported as “Colonies, yellow zones” and the “24-hour Results” value (L. mesenteroides; 32° C.) is reported as “Colonies, yellow zones”.

In the case of `O=C1C(Br)=CC(=C(c2cc(Br)c(O)c(Br)c2)c2ccccc2S(=O)(=O)[O-])C=C1Br.[Na+]` [Bromphenol Blue, Bromphenol Blue sodium salt], the “48-hour Results” value ([2]; 25° C.) is reported as “Pale colonies”, the “72-hour Results” value ([2]; 25° C.) is reported as “Colonies, gas” and the “48-hour Results” value ([2]; 32° C.) is reported as “pale colonies”. For the same compound, the “72-hour Results” value ([2]; 32° C.) was “Colonies, gas”, the “48-hour Results” value (L. mesenteroides; 32° C.) was “Pale colonies, gas bubbles” and the “72-hour Results” value (L. mesenteroides; 32° C.) was “Pale colonies, gas bubbles”.

With `O=S1(=O)OC(c2ccc(O)c(Cl)c2)(c2ccc(O)c(Cl)c2)c2ccccc21` [Chlorophenol Red, Chlorophenol red] the Observations (Leuconostoc; [10]) was “Acid zones were visible for all three microorganisms tested”, the Observations (Leuconostoc; [11]) was “Leuconostoc: Acid zones and gas bubbles. No visible colonies” and the Observations (Leuconostoc; [12]) was “Acid zones visible with all three strains”. For the same compound, the Observations (Leuconostoc; [13]) was “Leuconostoc: Acid zones. No visible colonies”, the “24-hour Results” value ([2]; 32° C.) was “Colonies; yellow zones” and the “48-hour Results” value ([2]; 32° C.) was “Colonies; yellow zones”. The Observations [1, 10] was “Acid zones were visible for all three microorganisms tested”, the Observations [1, 11] was “L. lactis subspecies lactis: Colonies with acid zones and gas bubbles” and the Observations [1, 12] was “Acid zones visible with all three strains”. The Observations [1, 13] was “L. lactis subspecies lactis: Colonies with acid zones and gas bubbles”, the Observations (Weissella; [10]) was “Acid zones were visible for all three microorganisms tested” and the Observations (Weissella; [11]) was “Weissella: Colonies with acid zones and gas bubbles”. The Observations (Weissella; [12]) was “Acid zones visible with all three strains”, the Observations (Weissella; [13]) was “Weissella: Colonies with acid zones and gas bubbles” and the “24-hour Results” value (L. mesenteroides; 32° C.) was “Yellow zones”. The “48-hour Results” value (L. mesenteroides; 32° C.) was “Yellow zones, gas”.

In the case of `C[C@@H]1[C@H](O)[C@@H](C)/C=C/C=C/CC/C=C/C=C/C=C/C=C/C(O[C@H]2O[C@H](C)[C@@H](O)[C@H](N)[C@@H]2O)CC2O[C@](O)(CC(O)C(O)CCC(O)CC(O)CC(O)CC(=O)O[C@H]1C)CC(O)C2C(=O)O` (stereo partly drawn) [Nystatin], the colony growth (Saccharomyces cerevisiae [3]) is reported as “grew only on the plates that did not contain Nystatin”, the colony growth (Lactobacillus brevis [4]) is reported as “grew whether Nystatin was present or not” and the colony growth (Pediococcus damnosus) is reported as “grew whether Nystatin was present or not”.

In the case of `C[C@@H]1C[C@@H]([C@H](O)CC2CC(=O)NC(=O)C2)C(=O)[C@@H](C)C1` [cycloheximide], the growth (Saccharomyces cerevisiae [5]; cycloheximide 5, 10, 40 and 100 ppm, only S. cerevisiae) is reported as “no growth”, the “Observation (colony growth)” value (Saccharomyces cerevisiae [5]; [14]) is reported as “No growth” and the “Observation (colony growth)” value (Lactobacillus brevis [6]) is reported as “Growth - 1 distinct colony morphology”. For the same compound, the colony morphology ([7]; cycloheximide 5, 10, 40 and 100 ppm) was “one distinct colony morphology” and the “Observation (colony growth)” value [7, 14] was “Growth - 1 distinct colony morphology”.
